For seven molecules, mutagenic call results are on record in PubChem BioAssay AID1259407 (Chemical Carcinogenesis Research Information System (CCRIS), 2018).

Structures are written as SMILES. The source made the active and inactive calls. No rule for the calls is given here.

The series has as its system CCRIS mutagenicity, Ames/micronucleus/aberration tests. Put plainly: CCRIS mutagenicity studies.

For `N=C(N)c1ccccc1`, the mutagenic call is, setting by setting: (Test System: AMES SALMONELLA TYPHIMURIUM, Strain/Indicator: TA98, Metabolic Activation: CO631 CELLS, Method: PREINCUBATION) “inactive; negative”; (Test System: AMES SALMONELLA TYPHIMURIUM, Strain/Indicator: TA98, Metabolic Activation: NONE, Method: PREINCUBATION) “inactive; negative”; (Test System: AMES SALMONELLA TYPHIMURIUM, Strain/Indicator: TA98, Metabolic Activation: RABBIT, LIVER, S-9, Method: PREINCUBATION) “inactive; negative”; (Test System: AMES SALMONELLA TYPHIMURIUM, Strain/Indicator: TA98, Metabolic Activation: RAT HEPATOCYTES, Method: PREINCUBATION) “inactive; negative”; (Test System: AMES SALMONELLA TYPHIMURIUM, Strain/Indicator: TA98, Metabolic Activation: RAT, LIVER, S-9, AROCLOR 1254, ATP, Method: PREINCUBATION) “inactive; negative”; (Test System: AMES SALMONELLA TYPHIMURIUM, Strain/Indicator: TA98, Metabolic Activation: RAT, LIVER, S-9, AROCLOR 1254, Method: PREINCUBATION) “inactive; negative”. The mutagenic call runs as follows: (Test System: AMES SALMONELLA TYPHIMURIUM, Strain/Indicator: TA100, Metabolic Activation: RABBIT, LIVER, S-9, Method: PREINCUBATION) “inactive; negative”; (Test System: AMES SALMONELLA TYPHIMURIUM, Strain/Indicator: TA100, Metabolic Activation: RAT HEPATOCYTES, Method: PREINCUBATION) “inactive; negative”; (Test System: AMES SALMONELLA TYPHIMURIUM, Strain/Indicator: TA100, Metabolic Activation: RAT, LIVER, S-9, AROCLOR 1254, ATP, Method: PREINCUBATION) “inactive; negative”; (Test System: AMES SALMONELLA TYPHIMURIUM, Strain/Indicator: TA100, Metabolic Activation: RAT, LIVER, S-9, AROCLOR 1254, Method: PREINCUBATION) “inactive; negative”.
With `Nc1ccc(Oc2ccc(Cl)cc2Cl)cc1`, the mutagenic call is, setting by setting: (Test System: AMES SALMONELLA TYPHIMURIUM, Strain/Indicator: TA98, Metabolic Activation: S-9, Method: STANDARD PLATE) “active; positive”; (Test System: AMES SALMONELLA TYPHIMURIUM, Strain/Indicator: TA100, Metabolic Activation: S-9, Method: STANDARD PLATE) “active; positive”; (Test System: AMES SALMONELLA TYPHIMURIUM, Strain/Indicator: YG1021, Metabolic Activation: S-9, Method: STANDARD PLATE) “active; positive”; (Test System: AMES SALMONELLA TYPHIMURIUM, Strain/Indicator: YG1024, Metabolic Activation: S-9, Method: STANDARD PLATE) “active; positive”; (Test System: AMES SALMONELLA TYPHIMURIUM, Strain/Indicator: YG1026, Metabolic Activation: S-9, Method: STANDARD PLATE) “active; positive”; (Test System: AMES SALMONELLA TYPHIMURIUM, Strain/Indicator: YG1029, Metabolic Activation: S-9, Method: STANDARD PLATE) “active; positive”.
As for `OC[C@H]1O[C@@](CO)(O[C@H]2O[C@H](CO)[C@@H](O)[C@H](O)[C@H]2O)[C@@H](O)[C@@H]1O`, the mutagenic call was “active; positive (structural changes); osmolality of solution decisive factor” (End Point: IN VITRO CHROMOSOMAL ABERRATIONS, Test System: CHO-WBL CELLS, Metabolic Activation: NONE); “inactive; negative” (Test System: MOUSE LYMPHOMA, Strain/Indicator: L5178Y (TK+/TK-), Metabolic Activation: NONE, Method: SUSPENSION/PLATE); “inactive; negative” (Test System: MOUSE LYMPHOMA, Strain/Indicator: L5178Y (TK+/TK-), Metabolic Activation: RAT, LIVER, S-9, AROCLOR 1254, Method: SUSPENSION/PLATE); “inactive; negative” (Test System: MOUSE LYMPHOMA, Strain/Indicator: L5178Y (TK+/TK-), Metabolic Activation: RAT, LIVER, S-9, Method: SUSPENSION/PLATE).
Consider `CN(C)CCNC(=O)c1cccc2c(=O)c3ccccc3[nH]c12`, for which the mutagenic call (Test System: AMES SALMONELLA TYPHIMURIUM, Strain/Indicator: TA1537, Metabolic Activation: NONE, Method: STANDARD PLATE) is “active; positive”.
For the molecule `CC(=O)Oc1c2ccccc2c2ccc3cccc4ccc1c2c43`, where the note is “Test System: UDS RODENT PRIMARY CELLS, Strain/Indicator: THY INCORP (NON-S-PHASE), Metabolic Activation: NONE, Method: AUTORADIOGRAPHY”, the mutagenic call is “active; positive”.
Turning to `CCCCNC(=O)c1cc(N)ccc1OC1CCCCC1`, the mutagenic call was “inactive; negative. data given only in abstract” (Test System: Ames Salmonella typhimurium, Strain/Indicator: TA98, Metabolic Activation: None, Method: Preincubation); “active; positive. a hydroxylated form of pa7 appears to be the active component” (Test System: Ames Salmonella typhimurium, Strain/Indicator: TA98, Metabolic Activation: Rat, Liver, S-9, Phenobarbital and beta-naphthoflavone, Method: Preincubation); “inactive; negative. data given only in abstract” (Test System: Ames Salmonella typhimurium, Strain/Indicator: TA100, Metabolic Activation: None, Method: Preincubation); “active; positive. a hydroxylated form of pa7 appears to be the active component” (Test System: Ames Salmonella typhimurium, Strain/Indicator: TA100, Metabolic Activation: Rat, Liver, S-9, Phenobarbital and beta-naphthoflavone, Method: Preincubation); “inactive; negative. data given only in abstract” (Test System: Ames Salmonella typhimurium, Strain/Indicator: TA102, Metabolic Activation: None, Method: Preincubation); “inactive; negative. data given only in abstract” (Test System: Ames Salmonella typhimurium, Strain/Indicator: TA1535, Metabolic Activation: None, Method: Preincubation). Also, the mutagenic call (Test System: Ames Salmonella typhimurium, Strain/Indicator: TA1537, Metabolic Activation: None, Method: Preincubation) was “inactive; negative. data given only in abstract”.
In the case of `COC(=O)/C(C#N)=C/c1ccccc1Br`, the mutagenic call (Test System: AMES SALMONELLA TYPHIMURIUM, Strain/Indicator: TA1535, Metabolic Activation: NONE, Method: STANDARD PLATE) was “inactive; negative” and the mutagenic call (Test System: AMES SALMONELLA TYPHIMURIUM, Strain/Indicator: TA1535, Metabolic Activation: RAT, LIVER, S-9, AROCLOR 1254, Method: STANDARD PLATE) was “inactive; negative”.
